One may read the IC50 as the concentration at which inhibition is half-maximal. Low readings indicate greater potency, high ones weaker potency.

Molecules are shown by their SMILES.

The target in this assay is CDK2 (human) (UniProt P24941). The assay is described as follows: Enzyme Assay.
`O=C(Nc1ccc(-n2cncn2)c(F)c1)c1ccc(C(=O)N[C@H]2CC[C@H](O)CC2)o1` displayed an IC50 of 1 to 40 µM.
`Cc1cc(OCCO)ccc1NC(=O)c1ccc(C(=O)Nc2ccc(-n3cncn3)cc2)s1`: the IC50 was not above 1 µM.
Molecule `COc1ccc(C(=O)Nc2ccc(C(=O)N3CCC(Oc4cnccn4)CC3)o2)c(C)c1` gave an IC50 not below 40 µM.
With `COc1ccc(NC(=O)c2ccc(C(=O)Nc3cccc(-c4cnco4)c3)s2)c(C)c1` the figure was not below 40 µM.
The same measure for `O=C(Nc1ccc(-n2cncn2)cc1)c1ccc(C(=O)Nc2cccc(Cl)c2)s1`: 1 to 40 µM; for `O=C(Nc1ccc(-n2cncn2)c(F)c1)c1ccc(C(=O)Nc2ccccc2N2CCOCC2)s1`: not below 40 µM; for `O=C(Nc1ccc(-n2cncn2)cc1)c1ccc(C(=O)Nc2nccs2)s1`: not below 40 µM.
On to `COc1ccc(NC(=O)c2ccc(C(=O)Nc3ccc(-n4cncn4)cc3)s2)cc1F`, for which the IC50 is not below 40 µM.
The same measure for `CN(C)C(=O)c1ccc(C(=O)Nc2ccc(-n3cncn3)c(F)c2)o1`: not below 40 µM; for `COc1ccc(C(=O)Nc2ccc(C(=O)Nc3ccc(-n4cncn4)cc3)s2)c(C)c1`: not above 1 µM.
With `COC(=O)c1cc(OC)ccc1NC(=O)c1ccc(C(=O)Nc2ccc(-n3cncn3)cc2)s1` the figure was 1 to 40 µM; with `Cc1cc(N2CCNCC2)ccc1NC(=O)c1ccc(C(=O)Nc2ccc(-n3cncn3)cc2)s1`, not above 1 µM; with `COc1ccc(N(C)C(=O)c2ccc(C(=O)Nc3ccc(-n4cncn4)cc3)s2)c(C)c1`, 1 to 40 µM.
The molecule `COc1ccc(NC(=O)c2ccc(C(=O)Nc3ccc(CN)cc3)s2)c(C)c1` yielded an IC50 not below 40 µM.
With `O=C(NCCc1c[nH]cn1)c1ccc(C(=O)Nc2ccc(-n3cncn3)cc2)s1` the figure was not below 40 µM; with `O=C(Nc1ccc(-n2cncn2)cc1)c1ccc(C(=O)N[C@H]2CCc3ccccc32)s1`, 1 to 40 µM; with `O=C(Nc1ccc(-n2cncn2)cc1)c1ccc(C(=O)N2CCN(c3ccccc3)CC2)s1`, not below 40 µM.
The same measure for `COc1ccc(NC(=O)c2ccc(C(=O)Nc3ccc(-n4cncn4)cc3F)s2)c(C)c1`: not below 40 µM; for `C[C@@H](NC(=O)c1ccc(C(=O)Nc2ccc(-n3cncn3)cc2)s1)C1CCCCC1`: not below 40 µM; for `O=C(Nc1ccc(-n2cncn2)c(F)c1)c1ccc(C(=O)Nc2ccccc2COc2ccccc2)s1`: not below 40 µM.
The same measure for `O=C(NCc1ccc2c(c1)CCO2)c1ccc(C(=O)Nc2ccc(-n3cncn3)cc2)s1`: not below 40 µM.
Turning to `O=C(Nc1ccc(-n2cncn2)cc1)c1ccc(C(=O)Nc2cc(F)ccc2F)s1`, the IC50 is not below 40 µM.
The same measure for `COc1ccc(NC(=O)c2ccc(C(=O)Nc3ccc(-n4cncn4)cc3)s2)c(C(=O)O)c1`: 1 to 40 µM; for `COc1ccc(NC(=O)c2ccc(C(=O)Nc3ccc4nccnc4c3)s2)c(C)c1`: not below 40 µM.
Consider `Cc1cc(CN2CCOCC2)ccc1NC(=O)c1ccc(C(=O)Nc2ccc(-n3cncn3)c(F)c2)s1`, for which the IC50 was not above 1 µM.
As for `COc1ccc(NC(=O)c2ccc(C(=O)Nc3ccc(-n4ccnc4)cc3)s2)c(C)c1`, the IC50 was not below 40 µM.
With `O=C(Nc1ccc(-n2cncn2)c(F)c1)c1ccc(C(=O)NC2CCCCC2)o1`, the IC50 was not above 1 µM.
`O=C(Nc1ccc(-n2cncn2)cc1)c1ccc(C(=O)N2CCCC(c3ccccc3)C2)s1` (centres undefined): the IC50 was not below 40 µM.
In turn, `CC(C)[C@@H](CO)NC(=O)c1ccc(C(=O)Nc2ccc(-n3cncn3)cc2)s1` had an IC50 not below 40 µM.
`O=C(Nc1ccc(-n2cncn2)cc1)c1ccc(C(=O)NC2Cc3ccccc3C2)s1` came in with an IC50 not below 40 µM.
`O=C(Nc1ccc(-n2cncn2)cc1)c1ccc(C(=O)Nc2cccc(-c3cnco3)c2)s1`: the IC50 is not below 40 µM.
`O=C(Nc1ccc(-n2cncn2)cc1)c1ccc(C(=O)Nc2ccc3c(c2)C(=O)OC3)s1` returned an IC50 not below 40 µM.
For the molecule `Cc1cc(CN(C)C)ccc1NC(=O)c1ccc(C(=O)Nc2ccc(-n3cncn3)cc2)s1`, the IC50 is 1 to 40 µM.
In turn, `O=C(NCCN1CCNC1=O)c1ccc(C(=O)Nc2ccc(-n3cncn3)cc2)s1` registered an IC50 not below 40 µM.
Molecule `Cn1nc(-c2cccs2)cc1NC(=O)c1ccc(C(=O)Nc2ccc(-n3cncn3)cc2)s1` gave an IC50 not below 40 µM.
The same measure for `C[C@H](NC(=O)c1ccc(C(=O)Nc2ccc(-n3cncn3)c(F)c2)o1)C1CCCCC1`: not above 1 µM.
Consider `Cn1c(NC(=O)c2ccc(C(=O)Nc3ccc(-n4cncn4)cc3)s2)nc2ccccc21`, for which the IC50 is not below 40 µM.
`O=C(Nc1ccc(-n2cncn2)cc1)c1ccc(C(=O)N2CCN(C3CCCC3)CC2)s1` had an IC50 not below 40 µM.
`Cc1cc(Cn2ccnc2)ccc1NC(=O)c1ccc(C(=O)Nc2ccc(-n3cncn3)cc2)s1` gave an IC50 not above 1 µM.
With `CNC(=O)c1ccc(C(=O)Nc2ccc(-n3cncn3)c(F)c2)o1` the figure was not below 40 µM; with `COc1ccc(NC(=O)c2ccc(C(=O)Nc3ccc(-c4nnc[nH]4)cc3)s2)c(C)c1`, not above 1 µM; with `COc1ccc(NCc2ccc(C(=O)Nc3ccc(-n4cncn4)cc3)o2)c(C)c1`, not below 40 µM.
The same measure for `COc1ccc(NC(=O)c2ccc(C(=O)Nc3ccc(OCCN(C)C)cc3)s2)c(C)c1`: not below 40 µM.
In turn, `COc1ccc(NC(=O)c2ccc(C(=O)Nc3ccc(-c4cnco4)cc3)s2)c(C)c1` came in with an IC50 not below 40 µM.
For `COC(=O)c1ccc(NC(=O)c2ccc(C(=O)Nc3ccc(OC)cc3C)s2)cc1`, the IC50 was not below 40 µM.
Regarding `COc1ccc(C(=O)Nc2ccc(C(=O)N3CCC(c4ccncc4)C3)o2)c(C)c1` (centres undefined), the IC50 is not below 40 µM.
Take `C[C@@H](NC(=O)c1ccc(C(=O)Nc2ccc(-n3cncn3)c(F)c2)o1)C1CCCCC1`: the IC50 was in the range of 1 to 40 µM.
In turn, `O=C(Nc1ccc(-n2cncn2)c(F)c1)c1ccc(C(=O)Nc2ccccc2C(F)(F)F)s1` registered an IC50 of 1 to 40 µM.
`O=C(Nc1ccc(C(=O)Nc2ccc(-n3cncn3)cc2)o1)c1ccccc1`: the IC50 was not below 40 µM.
With `O=C(NCCc1cccnc1)c1ccc(C(=O)Nc2ccc(-n3cncn3)cc2)s1` the figure was 1 to 40 µM.
As to `O=C(Nc1ccc(-n2cncn2)c(F)c1)c1ccc(C(=O)Nc2ccccc2OCc2ccccc2)s1`, the IC50 was not below 40 µM.
The same measure for `O=C(NCc1cccnc1)c1ccc(C(=O)Nc2ccc(-n3cncn3)cc2)s1`: not below 40 µM; for `Cc1cc(N2CCOCC2)ccc1NC(=O)c1ccc(C(=O)Nc2ccc(-n3cncn3)c(F)c2)s1`: not above 1 µM; for `Cc1cc(N(C)CCN(C)C)ccc1NC(=O)c1ccc(C(=O)Nc2ccc(-n3cncn3)cc2)s1`: not above 1 µM.
Regarding `O=C(Nc1ccc(-n2cncn2)cc1)c1ccc(NC(=O)C2CCCCC2)s1`, the IC50 was not above 1 µM.
Turning to `O=C(Nc1ccc(-n2cncn2)cc1)c1ccc(C(=O)Nc2ccc3c(c2)OCO3)s1`, the IC50 is not below 40 µM.
The molecule `COc1ccc(C(=O)Nc2ccc(C(=O)Nc3ccc(-n4cncn4)cc3)s2)cc1` registered an IC50 of 1 to 40 µM.
Turning to `Cc1cc(N2CCN(C)CC2)ccc1NC(=O)c1ccc(C(=O)Nc2ccc(-n3cncn3)cc2)s1`, the IC50 was not above 1 µM.
Molecule `COc1ccc(NC(=O)c2ccc(C(=O)Nc3ccc(-n4cncn4)cc3)s2)c(C)c1` had an IC50 not above 1 µM.
As to `COc1ccc(C(=O)Nc2ccc(C(=O)N3CCC(Oc4cnccn4)CC3)s2)c(C)c1`, the IC50 was 1 to 40 µM.
The same measure for `CC(C)NC(=O)c1ccc(C(=O)Nc2ccc(-n3cncn3)cc2)s1`: not below 40 µM; for `COc1ccc(NC(=O)c2ccc(C(=O)Nc3ccc(-n4cccn4)cc3)s2)c(C)c1`: not below 40 µM.
As for `O=C(Nc1ccc(-n2cncn2)cc1)c1ccc(C(=O)NC2CCCCC2)o1`, the IC50 was not above 1 µM.
With `C[C@H](O)CNC(=O)c1ccc(C(=O)Nc2ccc(-n3cncn3)cc2)s1` the figure was not below 40 µM.

The record behind these values is the Kinase Knowledgebase extract (Sharma et al. 2016).
